Results on four compounds are retold here after EP1800684A1, “Novel alkyl phospholipid derivatives and uses thereof” (Zentaris GmbH, priority 2005, dated 2007).

Values after ≈ are worked out from the molar mass of the structure shown. Where two headings read alike, the source gives them in different places.

In experiment [1] the test system is Cryptocoocus gattii (ATCC 32608). The experiment in a line: Anti-fungal susceptibility test (microdilution), fungus G. The experiment is classed as cell-based. The protocol:
(§1) The antifungal activities of the test compounds (compounds of the invention and known prior art compounds) were measured according to standard microdilution methods (Cryptococcus/Aspergillus: Ghannoum et al., Journal of Clinical Microbiology 1992, 30 (11): 2881-2886; Candida: Reference method for broth dilution susceptibility testing of yeast: proposed standard, NCCLS document M27-P, National Committee for Clinical Laboratory Standards 1992, Villanova, Pa).
(§2) A serial dilution series starting from 64 µg/mL test compound per well down to 0.125 µg/mL test compound per well was applied for each test compound on each fungus. The MIC of each compound was defined as the concentration which produces no visible growth after 48 hours (Candida) and 72 hours (Cryptococcus, Aspergillus) of culture at 35° C.
(§3) The following fungi were assessed: • A) Candida albicans (ATCC 10231) • B) Candida albicans (ATCC 90028) • C) Candida albicans (strain TS3, Shrikantha et al., Journal of Bacteriology 2000, 182(6):1580-1591) • D) Candida parapsilosis (ATCC 22019) • E) Cryptocoocus neoformans (ATCC 90112) • F) Cryptocoocus neoformans (strain H99; Ganendren et al., Antimicrobial Agents and Chemotherapy, 2004, 48(5):1561-1569) • G) Cryptocoocus gattii (ATCC 32608) • H) Aspergillus fumigatus (ATCC 204305) • I) Aspergillus fumigatus (strain 322-384)
(In broth dilution the organism is exposed to a series of concentrations in liquid medium.)

The subject of experiment [2] is Aspergillus fumigatus (ATCC 204305). Description: Anti-fungal susceptibility test (microdilution), fungus H. The experiment is classed as cell-based. Particulars: Aspergillus fumigatus, ATCC204305, no visible growth after 72 hours at 35° C, read-out: MIC. The protocol:
as §1, §2, §3

The subject of experiment [3] is Candida parapsilosis (ATCC 22019). Description: Anti-fungal susceptibility test (microdilution), fungus D. Format: cell-based. The following applies: ATCC22019, no visible growth after 48 hours at 35° C, read-out: MIC. The protocol: as §1, §2, §3
Experiment [4] relates to Plasmodium falciparum (strain K1). Description: In vitro drug susceptibility assay, protozoon C (3[H]-hypoxanthine method). The experiment is classed as cell-based. The protocol:
(§4) Plasmodium falciparum strain K1 and strain 3D7 parasites were cultured according to Trager W and Jensen JB (Science 1976, 193: 673-675). In vitro drug susceptibility assays with the test compounds were carried out according to Korsinczky M et al. (Antimicrobial agents and chemotherapy 2000, 44(8): 2100-2108) and Fivelman QL et al. (Antimicrobial agents and chemotherapy 2004, 48(11): 4097-4102) using a ^3[H]-hypoxanthine radioisotope method. ED50 values were calculated with Msxlfit (IDBS).
(§5) The following protozoa were assessed: • A) Trypanosoma cruzi (Tulahuan-LACZ amstigotes in PEM, Lorente SO et al., Antimicrobial agents and chemotherapy 2004, 48(8): 2937-2950; Buckner et al., Infection and Immunity 1999, 67(1): 403-409; Buckner et al., Antimicrobial Agents and Chemotherapy 1996, 40(11): 2592-2597) • B) Trypanosoma brucei rhodesiense (strain STIB900, Lorente SO et al., Antimicrobial agents and chemotherapy 2004, 48(8): 2937-2950; Habtemariam S, BMC Pharmacology 2003, 3:6) • C) Plasmodium falciparum (strain K1, Korsinczky M et al., Antimicrobial agents and chemotherapy 2000, 44(8): 2100-2108; Thaitong S and Beale GH, Trans. R. Soc. Trop. Med. Hyg. 1981, 75: 271-273; Trager W and Jensen JB, Science 1976, 193: 673-675) • D) Plasmodium falciparum (strain 3D7, Mu et al., PLoS Biology 2005, 3(10): e335)

For experiment [5], the system named is Candida albicans (strain TS3). Description: Anti-fungal susceptibility test (microdilution), fungus C. The experiment is classed as cell-based. The following applies: Candida albicans, no visible growth after 48 hours at 35° C, read-out: MIC. The protocol: as §1, §2, §3
In experiment [6] the test system is Plasmodium falciparum (strain 3D7). The experiment in a line: In vitro drug susceptibility assay, protozoon D (3[H]-hypoxanthine method). The experiment is classed as cell-based. The protocol:
as §4, §5

Experiment [7] deals with Cryptocoocus neoformans (ATCC 90112). Description: Anti-fungal susceptibility test (microdilution), fungus E. The experiment is classed as cell-based. The protocol: as §1, §2, §3
The subject of experiment [8] is Aspergillus fumigatus (strain 322-384). Description: Anti-fungal susceptibility test (microdilution), fungus I. Particulars: Aspergillus fumigatus, no visible growth after 72 hours at 35° C, read-out: MIC. Format: cell-based. The protocol:
as §1, §2, §3

Experiment [9] concerns Candida albicans (ATCC 10231). The experiment in a line: Anti-fungal susceptibility test (microdilution), fungus A. The experiment is classed as cell-based. Particulars: Candida albicans, ATCC10231, no visible growth after 48 hours at 35° C, read-out: MIC. The protocol: as §1, §2, §3
In experiment [10] the test system is Cryptocoocus neoformans (strain H99). The experiment in a line: Anti-fungal susceptibility test (microdilution), fungus F. The experiment is classed as cell-based. The protocol: as §1, §2, §3
Experiment [11] deals with Trypanosoma brucei rhodesiense (strain STIB900). The experiment in a line: In vitro drug activity assay, protozoon B (bloodstream form trypomastigotes, Alamar Blue). The experiment is classed as cell-based. Particulars: incubated for 72 hours. The protocol: Trypanosoma brucei rhodesiense STIB900 bloodstream form trypomastigotes were maintained in HMI-18 medium (Hirumi H, Hirumi K, J Parasitol. 1989, 75(6):985-989) with 15% heat-inactivated fetal calf serum at 37°C, 5% CO2, humidified atmosphere. Trypomastigotes were washed and resuspended in fresh medium at a concentration of 2 x 10^5 mL. Test compounds were given to the trypomastigotes and plates were incubated for 72 hours at 37°C, 5% CO2, humidified atmosphere. At 72 hours the plates were assessed microscopically before Alamar Blue was added (Raz et al., Acta Trop. 1997, 68: 139-147). Plates were read after 5 to 6 hours at EX/EM 530/585 nm with a filter cutoff at 550 nm. ED50 values were calculated with Msxlfit (IDBS).
as §5
A general note: Alamar Blue is a resazurin reagent that responds to reducing activity.

For experiment [12], the system named is Candida albicans (ATCC 90028). Description: Anti-fungal susceptibility test (microdilution), fungus B. The following applies: Candida albicans, ATCC90028, no visible growth after 48 hours at 35° C, read-out: MIC. The experiment is classed as cell-based. The protocol: as §1, §2, §3
Experiment [13] concerns Trypanosoma cruzi (Tulahuan-LACZ amstigotes in PEM). Description: In vitro drug activity assay, protozoon A (amastigotes in murine peritoneal macrophages, CPRG readout). The experiment is classed as cell-based. The following applies: infected macrophages exposed for 3 days. The protocol: Murine (CD1) peritoneal macrophages were harvested 24 hours after starch induction and dispensed into 96-well plates at a concentration of 4 x 10^5 mL. After 24 hours, the cells were infected with Trypanosoma cruzi Tulahuan LAC-Z amastigotes (grown and cultured according to Buckner et al., Infection and Immunity 1999, 67(1): 403-409). 24 hours later, the infected cells were exposed to the test compounds (compounds of the invention as well as known prior art compounds) for 3 days and 50 µL of 500 µM CPRG-1% Nonidet P-40 was added to each well. The plates were read after 2 to 5 hours at 570 nm (Buckner et al., Antimicrobial Agents and Chemotherapy 1996, 40(11): 2592-2597). ED50 values were calculated with Msxlfit (IDBS).
as §5

The subject of experiment [14] is Leishmaniasis. The following applies: clinical phase III trials, parenteral; cited from earlier work.
Setting [15] is: fungus G, no visible growth after 72 hours at 35° C, read-out: MIC.
The mark [16] stands for this setting: fungus E, no visible growth after 72 hours at 35° C, read-out: MIC.
[17] abbreviates: fungus F, no visible growth after 72 hours at 35° C, read-out: MIC.

Broadly, the MIC is the smallest concentration in the dilution series that meets the test's criterion for growth inhibition. `CCCCCCCCCCCCCCCCOP(=O)([O-])OC1CC[N+](C)(Cc2ccccc2)CC1` (stereo not shown) [Compound 1, Phosphoric acid 1-benzyl-1-methyl-piperidin-4-yl ester hexadecyl ester]: the MIC in [1] (setting [15]) was 1 µg/mL (≈ 1.96 µM); in [2] it was 2 µg/mL (≈ 3.92 µM); in experiment [3], 3 µg/mL (≈ 5.89 µM); in experiment [5] it was 1.5 µg/mL (≈ 2.94 µM); in experiment [7] (setting [16]), 1.5 µg/mL (≈ 2.94 µM); in [8] it was 2 µg/mL (≈ 3.92 µM). Also, the MIC was 2 µg/mL (≈ 3.92 µM) in experiment [9], 2 µg/mL (≈ 3.92 µM) in [10] (setting [17]) and 1 µg/mL (≈ 1.96 µM) in experiment [12]. Also, the “ED50 (µg/mL)” value in [4] was 6,93 µg/mL; in [6], 9,97 µg/mL; in [11], 18,80 µg/mL; in experiment [13] it was 1,71 µg/mL.

As for `CCCCCCCCCCCCCCCCOP(=O)([O-])OCC[N+]12CCC(CC1)CC2` [Compound 3, Phosphoric acid 2-(1-aza-bicyclo[2.2.2]oct-1-yl)-ethyl ester hexadecyl ester], the MIC was determined as 0.75 µg/mL (≈ 1.63 µM) in experiment [1] (72 h); 3 µg/mL (≈ 6.53 µM) in experiment [2]; 2 µg/mL (≈ 4.35 µM) in [3]; 2 µg/mL (≈ 4.35 µM) in [5]; 1.5 µg/mL (≈ 3.26 µM) in [7] (72 h); 2 µg/mL (≈ 4.35 µM) in experiment [8]. Further, the MIC in experiment [9], in experiment [10] (72 h) and in experiment [12] was 1 µg/mL (≈ 2.18 µM) each time. Moreover, the “ED50 (µg/mL)” value in experiment [4] is on record as 8,03 µg/mL; in experiment [6] it was 2,25 µg/mL; in experiment [11], 25,03 µg/mL; in experiment [13] it was 0,33 µg/mL.

As to `CCCCCCCCCCCCCCCCCCOP(=O)([O-])OC1CC[N+](CC)(CC)CC1` [Compound 5, Phosphoric acid 1,1-diethyl-piperidin-4-yl ester octadecyl ester], the MIC in [1] (setting [15]) is 0.75 µg/mL (≈ 1.53 µM); in experiment [2], 6 µg/mL (≈ 12.3 µM); in [3], 3 µg/mL (≈ 6.13 µM); in experiment [5], 2 µg/mL (≈ 4.08 µM); in experiment [7] (setting [16]) it was 1.5 µg/mL (≈ 3.06 µM); in [8], 8 µg/mL (≈ 16.3 µM). Also, the MIC in experiment [9], in experiment [10] (setting [17]) and in experiment [12] was 2 µg/mL (≈ 4.08 µM) throughout. The “ED50 (µg/mL)” value is listed as 21,26 µg/mL in [4], 16,31 µg/mL in experiment [6], 14,20 µg/mL in experiment [11] and 1,43 µg/mL in experiment [13].

On to `NC[C@@H]1O[C@H](O[C@H]2[C@@H](O)[C@H](O[C@@H]3[C@@H](O)[C@H](N)C[C@H](N)[C@H]3O[C@H]3O[C@H](CO)[C@@H](O)[C@H](O)[C@H]3N)O[C@@H]2CO)[C@H](N)[C@@H](O)[C@@H]1O` [paromomycin], for which the “efficient in % of the cases” value in experiment [14] is recorded as 95%.
